Test results: patent US20240392231A1, “BACTERIOLYSIS METHOD AND BACTERIA DETECTION METHOD” (ASAHI KASEI KABUSHIKI KAISHA, priority 2021, published 2024)

Columns and labels:
[1] = system: Escherichia coli (EC); assay: Bacteriolysis and immunochromatographic detection, test line intensity by image processing; type: cell-based
Method: (§1) Escherichia coli (EC) was selected as the Gram-negative bacteria and Staphylococcus aureus (SA) as the Gram-positive bacteria, and each was dissolved in saline to prepare a solution with a concentration of 1e5 cfu/ml. Normal saline was also used as the bacteria-free solution.
(§2) 0.1M Tris-HCl (pH 7.4) buffer was mixed with 2.0 μg/ml of lysostaphin enzyme (the final concentration after mixing with the bacterial solution for evaluation (sample) was 1.0 μg/ml) and 0.2 mass % Tween20 for immunochromatographic development and used as a mother solution to prepare various reaction solutions with DDAO concentrations of from 0 to 0.5 mass % (the final concentrations after mixing with the bacterial solution for evaluation (sample) were 0 to 0.25 mass %) or benzalkonium chloride concentrations of 0 to 0.5 mass % (the final concentrations after mixing with the bacterial solution for evaluation (sample) were 0 to 0.25 mass %).
(§3) Bacterial lysis and detection performance by antigen-antibody reaction were evaluated by inserting the immunochromatographic test strip prepared in Example 1 into a 1:1 mixture of the bacterial solution for evaluation and the various reaction solutions described above. The evaluation was made by photographing the test line area with a camera and quantifying the degree of redness of the test line area due to gold colloids via image processing (from the RGB values, the G value was used as indicating the red absorption. This is indicated as “test line intensity” in the graphs below). A higher test line intensity indicates a higher degree of redness, and a test line intensity of 10 or higher is considered visually positive.

[2] = system: Staphylococcus aureus (SA); assay: as above; type: cell-based
Method: as §1, §2, §3
To see the effect of lysostaphin, Staphylococcus aureus (SA) was dissolved in saline to prepare a solution with a concentration of 1e6 cfu/ml. Normal saline was also used as the bacteria-free solution.
0.1M Tris-HCl (pH 7.4) buffer was mixed with DDAO at a concentration 0.15 mass % (the final concentration after mixing with the bacterial solution for evaluation (sample) was 0.075 mass %) or benzalkonium chloride at a concentration of 0.05 mass % (the final concentration after mixing with the bacterial solution for evaluation (sample) was 0.025 mass %) as well as 0.2 mass % of Tween20 for immunochromatographic development and used as a mother solution to prepare various reaction solutions with lysostaphin enzyme concentrations of 0 to 50 μg/ml (the final concentration after mixing with the bacterial solution for evaluation (sample) were 0 to 25 μg/ml).
Bacterial lysis and detection performance by antigen-antibody reaction (test line intensity) were evaluated by inserting the immunochromatographic test strip prepared in Example 1 into a 1:1 mixture of the bacterial solution for evaluation and the various reaction solutions described above.

With `CCCCCCCCCCCC[N+](C)(C)[O-]` [DDAO, N,N-dimethyldodecylamine N-oxide] the “test line intensity EC” value ([1]; higher final concentrations of DDAO vs absence of DDAO, lysostaphin 1.0 μg/ml, 1e5 cfu/ml, FIG. 2) was “higher test line intensities”, the “test line intensity SA” value ([2]; final DDAO 0 to 0.05 mass %, lysostaphin 1.0 μg/ml, 1e5 cfu/ml, FIG. 2) was “increased” and the “test line intensity SA” value ([2]; final DDAO above 0.1 mass %, lysostaphin 1.0 μg/ml, 1e5 cfu/ml, FIG. 2) was “decreased”. For the same molecule, the “test line intensity SA” value ([2]; final DDAO between 0.05 and 0.1 mass %, lysostaphin 1.0 μg/ml, 1e5 cfu/ml, FIG. 2) was “remained almost constant”.
For benzalkonium chloride, the “test line intensity EC” value ([1]; final benzalkonium chloride exceeding 0.075 mass %, FIG. 3) was “decrease in test line intensity”, the “bacteriolysis efficiency and test line intensity EC” value ([1]; final benzalkonium chloride up to 0.075 mass % vs none, lysostaphin 1.0 μg/ml, 1e5 cfu/ml, FIG. 3) was “higher bacteriolysis efficiency and test line intensity” and the “test line intensity SA” value ([2]; final benzalkonium chloride 0 to 0.065 mass %, lysostaphin 1.0 μg/ml, 1e5 cfu/ml, FIG. 3) was “increased”. The “test line intensity SA” value ([2]; final benzalkonium chloride exceeding 0.07 mass %, FIG. 3) was “decreased”.
In the case of “lysostaphin: bacteriolysis enzyme, protein hydrolysis enzyme”, the “test line intensity SA” value ([2]; lysostaphin final concentration exceeding 0.01 μg/ml, DDAO 0.075 mass %, 1e6 cfu/ml, FIG. 4) is reported as “high test line intensity” and the “test line intensity SA” value ([2]; lysostaphin final concentration exceeding 0.01 μg/ml, benzalkonium chloride 0.025 mass %, 1e6 cfu/ml, FIG. 5) is reported as “high test line intensity”.
